Assays:
Format in all cases: in vivo
[1] = system: adult carpenter ants (Camponotus pennsylvanicus); test: Carpenter ant spray test
Protocol: The effect of cinnamic aldehyde on adult carpenter ants (Camponotus pennsylvanicus) was evaluated as follows. Twenty adult ants were placed in a 20 liter stainless steel pail with lid. The test formulations were prepared and used within one hour and were shaken immediately before spraying the insects. 8 ml of test solution was sprayed with a fine spray (Gilmour hand sprayer). […] Cinnamic aldehyde (2%, 20,000 ppm) in 2% Tween 80 and 6% NaHCO3 in water gave 100% mortality at all time points. Vehicle in 2% Tween 80 and 6% NaHCO3. Raid (active ingredients: permethrin, pyrethrins and PBO) was used as a positive control and gave 90% mortality at 0.5 hr with 100% mortality at all other time points.

[2] = system: larvae of Culex quinquefasciatus mosquito; test: Mosquito larvicidal bioassay
Protocol: Larvicidal activity of test formulations at varying concentrations was tested in a double blind bioassay on larvae of Culex quinquefasciatus mosquito. Twenty-five late 3rd-instar larvae of Culex quinquefasciatus were placed in 100×80 mm Purex #3250 glass containers. 250 ml distilled H2O was pipetted into the containers. One ml of test formulation containing 10 to 25,000 ppm cinnamic aldehyde in vehicle (2% by volume Tween 80 and 6% sodium bicarbonate in distilled H2O) was pipetted into each container. A control blank using 1 ml distilled H2O instead of a test formulation was also prepared.
All treated and untreated glass containers were placed in temperature controlled room at 29° C. Each container was evaluated for larvae mortality at 24 hour intervals. The number of dead larvae were reported. See Table 5 for results of the bioassay. Concentrations above 5,000 ppm cinnamic aldehyde gave 90% mortality at 24 and 48 hours.

[3] = system: soft tick (Ornithodoros coriaceus); test: Tick treated filter paper test, soft ticks
Protocol: In a double blind experiment, filter papers (90 mm) (Whatman) were treated to uniform saturation with 1 ml of test formula and placed in 90 mm petri dishes. Ten arachnids were placed in each petri dish and the dish closed. […] The cinnamic aldehyde concentrations varied from 10-50,000 ppm in a vehicle of 2% Tween 80, 6% NaHCO3. The effect of vehicle alone or H2O (HPLC) was also tested. In separate experiments, the effects of the components of the vehicle were evaluated in comparison to water.

[4] = system: melon aphid (Aphis gossypii Glover); test: Melon aphid plant foliar bioassay on flowering chrysanthemums; details: each concentration (1,000, 3,000, 10,000 ppm); after 36 hours; pre-count mean of about 60
Protocol: Treatment of melon aphid (Aphis gossypii Glover) is conducted as follows. Plants were grown in […] pots in planting soil in greenhouse. Chrysantemums (c. morifolum) were used for melon aphid plant foliar bioassays.
Flowering plants were infested and pre-count population size for each plant were taken and number of mean of aphids nymphs per leaf calculated. The plants were sprayed to runoff (about 5 ml) with an aqueous formulation containing 1,000 ppm, 3,000 ppm, and 10,000 ppm concentration of cinnamic aldehyde, and a negative control containing only H2O. After 36 hours, the number of insects on the leaves sprayed with a given test formulation was determined and compared with that of insects on leaves sprayed with negative control only. Mean aphid nymphs per leaf were determined to be less than 10 for each cinnamic aldehyde concentration compared to a pre-count mean of about 60.

[5] = system: hard ticks (Ixodea pacificus and Dermacentor albipietus); test: Tick treated filter paper test, hard ticks
Protocol: In a double blind experiment, filter papers (90 mm) (Whatman) were treated to uniform saturation with 1 ml of test formula and placed in 90 mm petri dishes. Ten arachnids were placed in each petri dish and the dish closed. Observations of mortality were made at 30 minutes, 1 hour, 3 hours, 6 hours, 12 hours and 24 hours. The cinnamic aldehyde concentrations varied from 10-50,000 ppm in a vehicle of 2% Tween 80, 6% NaHCO3. The effect of vehicle alone or H2O (HPLC) was also tested. In separate experiments, the effects of the components of the vehicle were evaluated in comparison to water.

[6] = 1 ml of 100 ppm formulation in 250 ml H2O
[7] = 1 ml of 2,500 ppm formulation in 250 ml H2O
[8] = 1 ml of 5,000 ppm formulation in 250 ml H2O
[9] = 1 ml of 12,500 ppm formulation in 250 ml H2O
[10] = 1 ml of 25,000 ppm formulation in 250 ml H2O
[11] = 10 ppm in 2% Tween 80 and 6% NaHCO3
[12] = 100 ppm in 2% Tween 80 and 6% NaHCO3
[13] = 2,500 ppm in 2% Tween 80 and 6% NaHCO3
[14] = 5,000 ppm in 2% Tween 80 and 6% NaHCO3
[15] = 12,500 ppm in 2% Tween 80 and 6% NaHCO3
[16] = 25,000 ppm in 2% Tween 80 and 6% NaHCO3

With `O=C/C=C/c1ccccc1` [CNMA, cinnamic aldehyde] as the molecule, how does the mortality at 20000 ppm [1] read?
The mortality at 20000 ppm was 100%.

What about the “Percent Mortality (time) 24 hours” value ([2]; 1 ml of 10 ppm formulation (2% Tween 80, 6% sodium bicarbonate) in 250 ml H2O) of the same molecule?
The value was 0%.

What about the “Percent Mortality (time) 48 hours” value ([2]; 1 ml of 10 ppm formulation in 250 ml H2O) of the same molecule?
Its value is 0%.

And the “Percent Mortality (time) 24 hours” value [2, 6]?
Its value is 2%.

What about the “Percent Mortality (time) 48 hours” value [2, 6] of the same molecule?
The value was 2%.

And the “Percent Mortality (time) 24 hours” value [2, 7]?
Its value is 4%.

And the “Percent Mortality (time) 48 hours” value [2, 7]?
The value was 4%.

And the “Percent Mortality (time) 24 hours” value [2, 8]?
Its value is 8%.

What about the “Percent Mortality (time) 48 hours” value [2, 8] of the same molecule?
The value was 20%.

What about the “Percent Mortality (time) 24 hours” value [2, 9] of the same molecule?
The value was 90%.

And the “Percent Mortality (time) 48 hours” value [2, 9]?
The value was 90%.

What about the “Percent Mortality (time) 24 hours” value [2, 10] of the same molecule?
The value was 100%.

What about the “Percent Mortality (time) 48 hours” value [2, 10] of the same molecule?
Its value is 100%.

What about the mortality ([2]; concentrations above 5,000 ppm, at 24 and 48 hours) of the same molecule?
Its mortality is 90%.

And the “Number Dead 24 Hours (#/30)” value [3, 11]?
The value was 0 #/30.

And the “Number Dead 120 Hours (#/30)” value [3, 11]?
Its value is 0 #/30.

What about the “Number Dead 24 Hours (#/30)” value [3, 12] of the same molecule?
The value was 0 #/30.

What about the “Number Dead 120 Hours (#/30)” value [3, 12] of the same molecule?
The value was 0 #/30.

What about the “Number Dead 24 Hours (#/30)” value [3, 13] of the same molecule?
The value was 2/30.

And the “Number Dead 120 Hours (#/30)” value [3, 13]?
The value was 6/30.

And the “Number Dead 24 Hours (#/30)” value [3, 14]?
The value was 3/30.

And the “Number Dead 120 Hours (#/30)” value [3, 14]?
The value was 6/30.

What about the “Number Dead 24 Hours (#/30)” value [3, 15] of the same molecule?
The value was 5/30.

What about the “Number Dead 120 Hours (#/10)” value [3, 15] of the same molecule?
The value was 10/10.

And the “Number Dead 120 Hours (#/30)” value [3, 15]?
The value was 6/30.

What about the “Number Dead 24 Hours (#/30)” value [3, 16] of the same molecule?
Its value is 7/30.

And the “Number Dead 120 Hours (#/10)” value [3, 16]?
Its value is 10/10.

And the “Number Dead 120 Hours (#/30)” value [3, 16]?
Its value is 21/30.

And the “Number Dead 120 Hours (#/10)” value ([3]; 30,000 ppm in 2% Tween 80 and 6% NaHCO3)?
The value was 10/10.

What about the “Number Dead 120 Hours (#/10)” value ([3]; 35,000 ppm in 2% Tween 80 and 6% NaHCO3) of the same molecule?
The value was 10/10.

What about the “Number Dead 120 Hours (#/10)” value ([3]; 40,000 ppm in 2% Tween 80 and 6% NaHCO3) of the same molecule?
Its value is 10/10.

What about the “Number Dead 120 Hours (#/10)” value ([3]; 45,000 ppm in 2% Tween 80 and 6% NaHCO3) of the same molecule?
The value was 10/10.

And the “Number Dead 120 Hours (#/10)” value ([3]; 50,000 ppm in 2% Tween 80 and 6% NaHCO3)?
The value was 10/10.

And the mortality at 12500 ppm ([3]; Ornithodoros coriaceus)?
Its mortality at 12500 ppm is 100%.

And the “Mean aphid nymphs per leaf” value [4]?
Its value is “less than 10”.

What about the mortality ([5]; 2500 ppm in vehicle (2% Tween 80, 6% NaHCO3), in 24 hours, preliminary experiments) of the same molecule?
Its mortality is 100%.

What about the effect on mortality ([5]; concentrations below 2500 in vehicle) of the same molecule?
Its effect on mortality is “no effect on mortality”.
